Results as given in paper PMC7769008 (Journal of medicinal chemistry, 2020).
Where “and” joins values, the source holds several entries; their conditions need not be identical. Equal values may be shown once.

What was measured:
[1] = pH 7.4
HeLa cells = details: 100 μM
[2] = system: 45 receptors and channels; details: 10 μM; radioligand binding and functional assays
[3] = MLM incubation
in vitro = details: PAMPA, pH 7.4
[4] = system: Plk1 localization to centrosomes and kinetochores; experiment: Plk1 localization and spindle morphology by immunostaining in HeLa cells; type: cell-based; details: 100 μM, 12 h
[5] = mice, 20 mg/kg, IP, whole period of the experiment

| SMILES | PAMPA [1] | ability to induce mitotic arrest and an antiproliferation effect (HeLa cells) | other results |
| --- | --- | --- | --- |
| CCCn1c(=O)c2ccccc2n2c(S)nnc12 [Compound 21, 4-Propyl-1-thioxo-2,4-dihydro-[1,2,4]triazolo[4,3-a]quinazolin-5(1H)-one] | 37.0 ×10⁻⁶ cm/s and 37 ×10⁻⁶ cm/s | lacked a detectable level of cellular response | potential off-target interactions [2]: not detected |
| CCCCn1c(=O)c2ccccc2n2c(S)nnc12 [Compound 23, 4-Butyl-1-thioxo-2,4-dihydro-[1,2,4]triazolo[4,3-a]quinazolin-5(1H)-one] | 77.5 ×10⁻⁶ cm/s | – | major metabolite (LC–MS/MS) [3]: glucuronidation is the major metabolite |
| CCCn1c(=O)c2ccccc2n2c(=S)n(CN(C)C3CC3)nc12 [Compound 35, 2-((Cyclopropyl(methyl)amino)methyl)-4-propyl-1-thioxo-2,4-di-hydro-[1,2,4]triazolo[4,3-a]quinazolin-5(1H)-one] | – | – | Solub. (μg/ml) (Aqueous solubility): Insol. |
| CCCn1c(=O)c2cc(F)ccc2n2c(=S)[nH]nc12 [Compound 64, 7-Fluoro-4-propyl-1-thioxo-2,4-dihydro-[1,2,4]triazolo[4,3-a]-quinazolin-5(1H)-one] | 195 ×10⁻⁶ cm/s | lacked a detectable level of cellular response | – |
| CN(C)CCn1c(=O)c2cc(F)ccc2n2c(=S)[nH]nc12 [Compound 70, 4-(2-(Dimethylamino)ethyl)-7-fluoro-1-thioxo-2,4-dihydro-[1,2,4]triazolo[4,3-a]quinazolin-5(1H)-one] | – | – | Papp (in vitro): 177 ×10⁻⁶ cm/s |
| COc1cccc(CC(=O)NCCCn2c(=O)c3cc(F)ccc3n3c(=S)[nH]nc23)c1 [Compound 129, N-(3-(7-Fluoro-5-oxo-1-thioxo-1,2-dihydro-[1,2,4]triazolo[4,3-a]-quinazolin-4(5H)-yl)propyl)-2-(3-methoxyphenyl)acetamide] | – | – | Papp (in vitro): 311 ×10⁻⁶ cm/s |
| CCCn1c(=O)c2cccc(F)c2n2c(=S)[nH]nc12 [Compound 139, 9-Fluoro-4-propyl-1-thioxo-2,4-dihydro-[1,2,4]triazolo[4,3-a]-quinazolin-5(1H)-one] | – | lacked a detectable level of cellular response | – |
| CCCn1c(=O)c2ccccc2n2c(SC)nnc12 [Compound 143, 1-(Methylthio)-4-propyl-[1,2,4]triazolo[4,3-a]quinazolin-5(4H)-one] | – | effectively induced rounded cells with apoptotic or aberrant chromosome morphologies | spindle bipolarity [4]: significantly compromised; signs of toxicity [5]: no signs of toxicity |
| CCCn1c(=O)c2cc(F)ccc2n2c(SC)nnc12 [Compound 144, 7-Fluoro-1-(methylthio)-4-propyl-[1,2,4]triazolo[4,3-a]-quinazolin-5(4H)-one] | – | induced mitotic arrest but at a somewhat reduced level | – |
| CCCn1c(=O)c2cccc(F)c2n2c(SC)nnc12 [Compound 145, 9-Fluoro-1-(methylthio)-4-propyl-[1,2,4]triazolo[4,3-a]-quinazolin-5(4H)-one] | – | effectively induced rounded cells with apoptotic or aberrant chromosome morphologies | – |
